Assay results: ChEMBL document CHEMBL1145650, “5-Aryluracils as potent GnRH antagonists-Characterization of atropisomers” (Bioorg Med Chem Lett, 2008)

Columns and labels:
[1] = target: T1, Gonadotropin-releasing hormone receptor (Homo sapiens, UniProt P30968); experiment: Antagonist activity at human GnRHR assessed as inhibition of calcium flux by IP3 assay; assay type: functional
T1 sequence (P30968 whole entry): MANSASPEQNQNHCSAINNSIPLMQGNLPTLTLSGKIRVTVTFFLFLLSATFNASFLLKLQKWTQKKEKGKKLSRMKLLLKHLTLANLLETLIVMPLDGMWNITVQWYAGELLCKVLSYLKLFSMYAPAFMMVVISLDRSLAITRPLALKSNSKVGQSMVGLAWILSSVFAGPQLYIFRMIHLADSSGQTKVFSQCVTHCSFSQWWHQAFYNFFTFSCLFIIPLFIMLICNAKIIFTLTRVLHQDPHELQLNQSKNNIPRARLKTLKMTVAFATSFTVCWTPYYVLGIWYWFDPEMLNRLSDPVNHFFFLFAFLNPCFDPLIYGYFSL

[2] = target: T1, Gonadotropin-releasing hormone receptor; experiment: Binding affinity to human GnRHR

SMILES | IC50 [1] | Ki [2]
CC[C@H](Cn1c(=O)c(-c2cccc(OC)c2Cl)c(C)n(Cc2c(F)cccc2C(F)(F)F)c1=O)NC1CCCC1 |  | 7.4 nM
COc1cccc(-c2c(C)n(Cc3c(F)cccc3C(F)(F)F)c(=O)n(C[C@H](CO)NC3CCCC3)c2=O)c1Cl (single isomer, unassigned; atropisomer) | 2500 nM | 190 nM
COc1cccc(-c2c(C)n(Cc3c(F)cccc3C(F)(F)F)c(=O)n(C[C@H](C)NC3CCCC3)c2=O)c1Cl (single isomer, unassigned; form 1) | 385 nM | 61 nM
COc1cccc(-c2c(C)n(Cc3c(F)cccc3F)c(=O)n(C[C@H](CO)NC3CCCC3)c2=O)c1F |  | 4.9 nM
COc1cccc(-c2c(C)n(Cc3c(F)cccc3C(F)(F)F)c(=O)n(C[C@@H](C)NC3CCCC3)c2=O)c1F |  | 33 nM
COc1cccc(-c2c(C)n(Cc3c(F)cccc3C(F)(F)F)c(=O)n(C[C@H](C)NC3CCCC3)c2=O)c1 |  | 4.5 nM
CC[C@@H](Cn1c(=O)c(-c2cccc(OC)c2F)c(C)n(Cc2c(F)cccc2C(F)(F)F)c1=O)NC1CCCC1 |  | 4.2 nM
CC[C@H](Cn1c(=O)c(-c2cccc(OC)c2F)c(C)n(Cc2c(F)cccc2C(F)(F)F)c1=O)NC1CCCC1 |  | 20 nM

Compounds with a lower Ki [2], results first:

IC50 [1] | Ki [2] | SMILES
 | 3.7 nM | CC[C@@H](Cn1c(=O)c(-c2cccc(OC)c2Cl)c(C)n(Cc2c(F)cccc2C(F)(F)F)c1=O)NC1CCCC1
5.4 nM | 0.7 nM | COc1cccc(-c2c(C)n(Cc3c(F)cccc3C(F)(F)F)c(=O)n(C[C@H](CO)NC3CCCC3)c2=O)c1Cl
3.3 nM | 0.61 nM | COc1cccc(-c2c(C)n(Cc3c(F)cccc3C(F)(F)F)c(=O)n(C[C@H](C)NC3CCCC3)c2=O)c1F
2.6 nM | 0.36 nM | COc1cccc(-c2c(C)n(Cc3c(F)cccc3C(F)(F)F)c(=O)n(C[C@H](CO)NC3CCCC3)c2=O)c1Cl (atropisomer R)
1.5 nM | 0.3 nM | COc1cccc(-c2c(C)n(Cc3c(F)cccc3C(F)(F)F)c(=O)n(C[C@H](C)NC3CCCC3)c2=O)c1Cl (single isomer, unassigned; form 2)
